# Measured values published in PubChem BioAssay (NCI).
#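 Each compound was tested at five concentrations against cells in 96-well plates for 48 hours. GI50 marks 50% less growth. TGI marks complete inhibition of growth.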
# Key:
# Assay in all cases: growth of human tumour cells (NCI), 48 h
# [1] = system: SF-268 CNS
# [2] = system: LOX IMVI melanoma
# [3] = system: SK-MEL-28 melanoma
# [4] = system: KM12 colon
# [5] = system: NCI-H226 lung
# [6] = system: A549 NSCLC
# [7] = system: NCI/ADR-RES ovarian
# [8] = system: SR leukemia
# [9] = system: T-47D breast
# [10] = system: MCF7 breast
# [11] = system: UO-31 renal
# [12] = system: RXF 393 renal
# [13] = system: MDA-MB-435
# [14] = system: HCT-15 colon
# [15] = system: NCI-H522 lung
# [16] = system: U251 CNS
# [17] = system: UACC-257 melanoma
# [18] = system: SF-295 CNS
# [19] = system: NCI-H23 lung
# [20] = system: PC-3 prostate
# [21] = system: UACC-62 melanoma
# [22] = system: MALME-3M melanoma
# [23] = system: OVCAR-5 ovarian
# [24] = system: HOP-62 NSCLC
# [25] = system: SK-OV-3 ovarian
# [26] = system: M14 melanoma
# [27] = system: EKVX NSCLC
# [28] = system: K-562 leukemia
# [29] = system: OVCAR-8 ovarian
# [30] = system: CAKI-1 renal
# [31] = system: MDA-MB-231 breast
# [32] = system: ACHN renal
# [33] = system: OVCAR-4 ovarian
# [34] = system: SW-620 colon
# [35] = system: HT29 colon
# [36] = system: HCT-116 colon
# [37] = system: SK-MEL-5 melanoma
# [38] = system: SN12C renal
# [39] = system: BT-549 breast
# [40] = system: RPMI-8226 leukemia
# [41] = system: IGROV1 ovarian
# [42] = system: MOLT-4 leukemia
# [43] = system: CCRF-CEM leukemia
# [44] = system: SK-MEL-2 melanoma
# [45] = system: HS 578T breast
# [46] = system: HOP-92 NSCLC
# [47] = system: SF-539 CNS
# [48] = system: NCI-H460 lung
# [49] = system: HCC-2998 colon
# [50] = system: 786-0 renal
# [51] = system: TK-10 renal
# [52] = system: SNB-75 CNS
# [53] = system: SNB-19 CNS
# [54] = system: A498 renal
# [55] = system: OVCAR-3 ovarian
# [56] = system: COLO 205 colon
# [57] = system: DU-145 prostate
# [58] = system: HL-60(TB) leukemia
smiles,measurement,setting,value
COC(=O)C(C(=O)C(=O)Nc1c(C)cccc1C(C)(C)C)c1nc2ccc(Cl)cc2[nH]c1=O (centres undefined),TGI,[1],> 100 µM
same,TGI,[2],> 100 µM
same,TGI,[3],> 100 µM
same,TGI,[4],> 100 µM
same,TGI,[5],> 100 µM
same,TGI,[6],> 100 µM
same,TGI,[7],> 100 µM
same,TGI,[8],> 100 µM
same,TGI,[9],> 100 µM
same,TGI,[10],> 100 µM
same,TGI,[11],> 100 µM
same,TGI,[12],> 100 µM
same,TGI,[13],> 100 µM
same,TGI,[14],> 100 µM
same,TGI,[15],> 100000 nM
same,TGI,[16],> 100 µM
same,TGI,[17],> 100 µM
same,TGI,[18],> 100 µM
same,TGI,[19],> 100 µM
same,TGI,[20],> 100 µM
same,TGI,[21],> 100 µM
same,TGI,[22],> 100 µM
same,TGI,[23],> 100 µM
same,TGI,[24],> 100 µM
same,TGI,[25],> 100 µM
same,TGI,[26],> 100 µM
same,TGI,[27],> 100 µM
same,TGI,[28],> 100 µM
same,TGI,[29],> 100 µM
same,TGI,[30],> 100 µM
same,TGI,[31],> 100 µM
same,TGI,[32],> 100 µM
same,TGI,[33],> 100 µM
same,TGI,[34],> 100 µM
same,TGI,[35],> 100 µM
same,TGI,[36],> 100000 nM
same,TGI,[37],> 100000 nM
same,TGI,[38],> 100 µM
same,TGI,[39],> 100000 nM
same,TGI,[40],> 100 µM
same,TGI,[41],> 100 µM
same,TGI,[42],> 100 µM
same,TGI,[43],> 100 µM
same,TGI,[44],> 100 µM
same,TGI,[45],> 100 µM
same,TGI,[46],> 100 µM
same,TGI,[47],> 100000 nM
same,TGI,[48],> 100 µM
same,TGI,[49],> 100 µM
same,TGI,[50],> 100000 nM
same,TGI,[51],> 100 µM
same,TGI,[52],> 100 µM
same,TGI,[53],> 100 µM
same,TGI,[54],> 100 µM
same,TGI,[55],> 100000 nM
COc1cc(N2C(=O)[C@H](Cl)C2c2ccc(SC)cc2)cc(OC)c1OC (some centres undefined),GI50,[1],84.1 nM
same,TGI,[1],> 100 µM
same,GI50,[2],63.5 nM
same,TGI,[2],> 100 µM
same,GI50,[4],47.3 nM
same,TGI,[4],20.3 µM
same,GI50,[56],67.7 nM
same,TGI,[56],11.4 µM
same,GI50,[5],370 nM
same,TGI,[5],> 100 µM
same,GI50,[6],463 nM
same,TGI,[6],> 100 µM
same,GI50,[7],35.6 nM
same,TGI,[7],> 100 µM
same,GI50,[8],47.3 nM
same,TGI,[8],> 100 µM
same,GI50,[9],41.3 µM
same,TGI,[9],> 100 µM
same,GI50,[10],35.6 nM
same,TGI,[10],> 100 µM
same,GI50,[12],38.5 nM
same,TGI,[12],> 100 µM
same,GI50,[14],47 nM
same,TGI,[14],> 100 µM
same,GI50,[15],29.9 nM
same,TGI,[15],263 nM
same,GI50,[16],124 nM
same,TGI,[16],> 100 µM
same,GI50,[17],32.2 µM
same,TGI,[17],> 100 µM
same,GI50,[57],168 nM
same,TGI,[57],> 100 µM
same,GI50,[18],39.4 nM
same,TGI,[18],> 100 µM
same,GI50,[19],121 nM
same,TGI,[19],> 100 µM
same,GI50,[20],95.2 nM
same,TGI,[20],> 100 µM
same,GI50,[21],71.2 nM
same,TGI,[21],91.5 µM
same,GI50,[23],411 nM
same,TGI,[23],> 100 µM
same,GI50,[24],263 nM
same,TGI,[24],> 100 µM
same,GI50,[25],588 nM
same,TGI,[25],> 100 µM
same,GI50,[27],209 nM
same,TGI,[27],> 100 µM
same,GI50,[28],36.6 nM
same,TGI,[28],> 100 µM
same,GI50,[29],226 nM
same,TGI,[29],> 100 µM
same,GI50,[30],48.4 nM
same,TGI,[30],> 100 µM
same,GI50,[31],238 nM
same,TGI,[31],> 100 µM
same,GI50,[32],61 nM
same,TGI,[32],71.3 µM
same,GI50,[58],142 nM
same,TGI,[58],703 nM
same,GI50,[33],64.7 nM
same,TGI,[33],> 100 µM
same,GI50,[34],45.3 nM
same,TGI,[34],> 100 µM
same,GI50,[35],43.8 nM
same,TGI,[35],> 100 µM
same,GI50,[36],35 nM
same,TGI,[36],1000 nM
same,GI50,[37],52.2 nM
same,TGI,[37],468 nM
same,GI50,[38],348 nM
same,TGI,[38],> 100 µM
same,GI50,[39],98.9 nM
same,TGI,[39],748 nM
same,GI50,[40],348 nM
same,TGI,[40],10.5 µM
same,GI50,[41],67.2 nM
same,TGI,[41],> 100 µM
same,GI50,[42],284 nM
same,TGI,[42],> 100 µM
same,GI50,[43],305 nM
same,TGI,[43],> 100 µM
same,GI50,[44],300 nM
same,TGI,[44],> 100 µM
same,GI50,[45],101 nM
same,TGI,[45],> 100 µM
same,GI50,[46],214 nM
same,TGI,[46],> 100 µM
same,GI50,[47],30.7 nM
same,TGI,[47],163 nM
same,GI50,[48],362 nM
same,TGI,[48],11.6 µM
same,GI50,[49],235 nM
same,TGI,[49],> 100 µM
same,GI50,[50],45.6 nM
same,TGI,[50],1830 nM
same,GI50,[51],1940 nM
same,TGI,[51],> 100 µM
same,GI50,[52],23.6 nM
same,TGI,[52],> 100 µM
same,GI50,[53],96.5 nM
same,TGI,[53],> 100 µM
same,GI50,[55],29.4 nM
same,TGI,[55],89 nM
